Laboratory results as given in patent US11576887B2, “Nitro-oleic acid controlled release platform to induce regional angiogenesis in abdominal wall repair” (University of Pittsburgh—Of the Commonwealth System of …, priority 2017, dated 2023).
“Also recorded” adds a separate entry of the source.

Key:
[1] = tested on: rat abdominal wall partial thickness defect; experiment: Rat abdominal wall partial thickness defect repair, histological assessment of 8 wk explants; assay type: in vivo, Sprague-Dawley rats
Protocol: At 8 wk post-implantation samples were retrieved, fixed in 10% formalin solution for ≥24 h, embedded in paraffin and serially sectioned into specimens 10 μm in thickness. Next, hematoxylin and eosin (H&E) and Masson' trichrome (MT) staining of pre implantation scaffolds and explants were utilized to evaluate: polymeric fiber volume, newly formed tissue, cellular infiltration, and scar area (FIG. 4-FIG. 5). In order to assess the foreign body response a custom-made algorithm, developed in Matlab (Mathwork, Natick Mass.), was utilized to segment and quantify collagen rich areas (FIG. 4G-4H). The algorithm is based on a two-phase iterative process known as k means clustering. In step one, given an integer k and an array of data, k cluster centroids were identified minimizing the total squared Euclidean distance between each pixel and its closest RGB centroid. With k=4, the algorithm segmented each image into 4 color groups corresponding to background, muscle tissue, collagen or de-novo ECM, and scaffold.
At the macroscopic scale, cross sections were utilized to quantify explant thickness. NIH Image J was utilized to identify the explant central line, draw equi-spaced segments (n=10) perpendicular to this line intersecting the abdominal wall border, and calculate the mean of their lengths. This measure was coupled with in situ explant visual inspection (FIG. 6). […]

[2] = tested on: rat abdominal wall partial thickness defect; experiment: Blood vessel morphological assessment (MT staining, CD31/αSMA immunofluorescence) of 8 wk explants; assay type: in vivo, Sprague-Dawley rats; conditions: rat abdominal wall defect model, 8 wk end-point
Source text: Adult female Sprague-Dawley rats 10-12 wk old, ˜250 g in weight (Harlan Sprague Dawley Inc., Indianapolis, Ind., USA) were used for the abdominal wall repair procedure. The experiment was designed to assess the effects of NO2-FA controlled release on angiogenesis. Therefore, a partial wall defect was preferred to a full wall defect model, this enabled evaluation of the impact of drug release on the tissue underneath the abdominal wall patch. The surgical protocol was adapted from a procedure previously established Lai et al. Peritoneal Regeneration Induced by an Acellular Bovine Pericardial Patch in the Repair of Abdominal Wall Defects. Journal of Surgical Research 127, 85, 2005. In brief, inhalation of 1.25-2.5% (maintenance-induction) isoflurane with 100% oxygen was adopted as anesthetic. The skin was shaved and the surgical field was prepared by sterilization with povidone-iodine solution, the rats were positioned in dorsal recumbency on a heating blanket, the operating environment was kept sterile during the procedure. […]
Regional angiogenesis was investigated by combining morphological with topological information. Morphological assessment included quantification of blood vessel/mm^2 and vessel type and was performed with two distinct experiments: histological (FIG. 7, 9) and immunofluorescence assessment (FIG. 8). […]

[3] = NO2-OA controlled release in vitro from PLGA microparticles and scaffolds in lipase solution; assay type: physicochemical
Protocol: NO2-OA in microparticles and scaffolds was extracted by dissolving the samples in 200 μL, HFIP with 0.5 pmol NO2−^[13C18]OA internal standard, and extracted three times with 1 mL methanol, each time vortexing and centrifuging at 15,000 xg for 10 min at 4° C. Then, the collected methanol was dried under a stream of nitrogen, reconstituted in 100 μL methanol and analyzed by high performance liquid chromatography-electrospray ionization-tandem mass spectrometry (HPLC-ESI-MS/MS). Controlled release (n=3) of NO2-OA in microparticles (FIG. 1D) and scaffolds (FIGS. 3B) was studied in 50 mM phosphate buffer, pH 7.4 with 0.2 mg/mL porcine lipase at 37° C. Aliquots were collected at various time points, spiked with 15 pmol NO2−^[13C18]OA, 1 mL acetonitrile was added and then, samples were vortexed, centrifuged and analyzed by HPLC-ESI-MS/MS. At each time point a fresh incubating solution was utilized.
Analysis of NO2-OA was performed by HPLC-ESI-MS/MS. […] NO2-OA was analyzed in negative mode with the following parameters: declustering potential (DP)—75V, collision energy (CE)—35 eV, desolvation temperature of 700° C., and a multiple reaction monitoring (MRM) transition 326.3/46. Quantification of NO2-OA in samples was performed by stable isotopic dilution analysis using a NO2-OA calibration curve in the presence of NO2-[^13C18]OA internal standard (MRM 344.3/46).

- NO2-OA release profile from PLGA microparticles ([3]; 50 mM phosphate buffer pH 7.4, 0.2 mg/mL porcine lipase, 37° C, effect of microparticle size): sigmoidal
- duration of controlled NO2-OA release from PLGA microparticles ([3]; NO2-OA (1mM), particle size 1-50 μm range): up to 7 days
Compound: CCCCCCCC/C(=C\CCCCCCCC(=O)O)[N+](=O)[O-] [NO2-OA, 10-nitro-9-trans-octadecenoic acid]
- abdominal wall thickness of explants ([1]; 8 wk, compared with healthy native rat abdominal wall): significantly increased wall thickness
- fibrotic response ([1]; rat abdominal wall defect model): significantly reduce fibrotic response
- regional angiogenesis / neovascularization [2]: additional effect; also recorded: promotes neovascularization; also recorded: significantly improved regional angiogenesis; also recorded: significantly enhanced regional angiogenesis
